Source: BindingDB's records for doi:10.1021/jm021113r (University of Camerino, 2003)
pKi: −log10 of the molar value.

Biological target: Nischarin / imidazoline I1 receptor (Rattus norvegicus)
Assay: Displacement of [125I]p-iodoclonidine from imidazoline receptor I-1 in rat pheochromocytoma cells

SMILES | pKi
CC(CC1=NCCN1)c1ccccc1 (stereo not given) | 5.22
CC(Oc1ccccc1)C1=NCCN1 (stereo not given) | 6.51
C[C@@H](CC1=NCCN1)c1ccccc1 | 5.14

Continued by rising pKi, values first:

pKi | SMILES
5.43 | c1ccc(CCC2=NCCN2)cc1 [2-Phenethyl-4,5-dihydro-1H-imidazole]
6.23 | C[C@H](CC1=NCCN1)c1ccccc1
